Values joined by “and” are separate entries in the source; they are usually repeats but may differ in a detail not shown here. Identical values can stand only once. Like-named read-outs stand apart in the source and are kept apart here.
How the values were obtained:
[1] = molecular target: DR1-CLIP (fluorescently labeled CLIP bound to HLA-DR1) (Homo sapiens, UniProt P01903+P01911, A100R/D57E/F55L/F60I/F76Y/I96L/L162R/M171V/P40L/Q125E/R42F/V115G/Y59C); experiment: fluorescence polarization screen of peptide release from DR1-CLIP (high-throughput and focused metal screen); type: binding; conditions: for ability to disrupt DR1-CLIP association, focused screen of metal complexes (FIG. 1a): 250 μM, ~20 h, 37° C., pH 5.0; for activity in high-throughput screen (peptide release by fluorescence polarization): 28,000 compounds screened, HLA-DM present, pH 5
Protocol: To find small-molecule modulators of class II MHC-peptide interactions, we used a high-throughput, fluorescence polarization assay to screen 28,000 compounds and natural extracts. Each well of a microplate contained a fluorescently labeled class II-associated invariant chain peptide (CLIP) bound to human leukocyte antigen (HLA)-DR1, a class II MHC protein. In addition, HLA-DM, a peptide exchange catalyst required in vivo for efficient loading, was present. The assay was performed at pH 5 to simulate endosomal pH (Morris P et al. (1994) Nature 368:551-4; Weber D A et al. (1996) Science 274:618-20). Compounds were added to the plates by pin transfer and monitored peptide release by fluorescence polarization. The screen uncovered only two active compounds, cisplatin (1) and carboplatin (2), both platinum(II) complexes.
Fluorescence polarization (FP) based binding assay used for small molecule screening. A FP assay was developed in order to screen small-molecule libraries for chemicals that could modulate peptide binding by class II MHC proteins. The fluorescent DR1-CLIP-AlexaFluor488 (0.1 μM) was used for all FP studies. The concentration of DM used in the screening assay, and when included as a control, was 0.1 μM. Experiments were carried out in a final volume of 40 μl in black, 384-well assay plates (non-binding surface, Costar). The plate was sealed with an aluminum foil seal (Costar), placed in a sealed humidified container, and incubated at 37° C. The FP values for each experimental well were determined using a plate reader (Analyst, LJL Biosystems). A total of 27,937 compounds from several commercial sources were screened using this assay. This assay format was also used to screen several metal complexes and chloride salts as wells as for kinetic studies.
Focused screen of metal complexes using the FP assay. Based on the results of the primary small molecule screen, a focused screen consisting of several metal complexes and chloride salts was performed using the fluorescence polarization assay. […]. These were tested in duplicate at a concentration of 250 μM. For the focused screen, DR1 (100 nM) bound to a Alexa-Fluor 488-labeled CLIP (af-CLIP) peptide was incubated with several metal complexes and salts (250 μM) for ˜20 h (37° C., pH 5.0), and then peptide release was measured by a fluorescence polarization assay. For comparison, the FP of labeled DR1-CLIP incubated with and without excess unlabeled HA peptide and the FP of af-CLIP peptide alone were also measured.

DR1-CLIP complex = DR1-CLIP complex (Homo sapiens, UniProt P01903+P01911, A100R/D57E/F55L/F60I/F76Y/I96L/L162R/M171V/P40L/Q125E/R42F/V115G/Y59C); experiment: chemiluminescent ELISA of metal-induced peptide release, DR1-CLIP; type: binding; conditions: for IC50: read-out: IC50 for CLIP release from DR1
DR1-HA = DR1-HA (Homo sapiens, UniProt P01903+P01911, A100R/D57E/F55L/F60I/F76Y/I96L/L162R/M171V/P40L/Q125E/R42F/V115G/Y59C); experiment: activation of sodium aurothiomalate by hypochlorite, peptide release ELISA; type: binding; conditions: pH 7.4, final compound 10 μM, oxidant 0-10 μM, overnight 37° C.
Protocol: Activation of sodium aurothiomalate (sodium Au(I)-thiomalate, 8) by sodium hypochlorite (NaOCl). Sodium aurothiomalate (8; 300 μM) and a control, thiomalate (D,L-mercaptosuccinic acid, 9), were dissolved in PBS and incubated for 1 h at 20° C. with increasing concentrations of NaOCl. After 1 h, 5 μl of each reaction stock solution was added to DR1-HA-biotin (0.1 μM) in PBS (pH 7.4). The final concentration of compounds 8 and 9 was 10 μM. After incubation of the protein with added compound overnight at 37° C., the amount of biotinylated HA peptide that bound to DR1 was determined by chemiluminescent ELISA.
Activation of sodium aurothiomalate (Au(I)-thiomalate, 8) by sodium hypochlorite (NaOCl). The concentration of sodium hypochlorite (NaOCl) solution was determined prior to each use by measuring the absorbance at 292 nm (ε292=350 M^−1cm^−1). Sodium aurothiomalate (8), 300 μM, was incubated for one hour at 20° C. in the presence of increasing concentrations of NaOCl (0 μM, 100 μM, 125 μM, 150 μM, and 300 μM) in PBS (pH 7.4). As a control, thiomalate (D,L-mercaptosuccinic acid, 9), 300 μM, was also treated with the identical concentrations of NaOCl. After one hour, 5 μL of each reaction stock solution was added to 145 μL of DR1-HA-biotin complex in PBS (pH 7.4). The final protein concentration was 0.1 μM and the final concentration of compounds 8 and 9 was 10 μM. Final concentrations of oxidant were 0, 3.33, 4.17, 5 and 10 μM. Each concentration of oxidant was tested in quadruplicate. After incubating overnight at 37° C., the amount of biotinylated HA peptide that remained bound to DR1 was determined using the chemiluminescent ELISA described above.

DR1-HA(306-318) complex = DR1-HA(306-318) complex (Homo sapiens, UniProt P01903+P01911, A100R/D57E/F55L/F60I/F76Y/I96L/L162R/M171V/P40L/Q125E/R42F/V115G/Y59C); experiment: chemiluminescent ELISA of metal-induced peptide release, DR1-HA; type: binding; conditions: read-out: IC50 for HA peptide release from DR1
[2] = test system: HA peptide-loaded LG-2 cells presented to influenza-specific T cell hybridoma; experiment: T cell activation assay (IL-2 release); type: cell-based; conditions: 1-100 μM, APCs treated […], IL-2 ELISA (FIG. 4c)
[3] = test system: peptide-class II MHC complex; experiment: inhibition of peptide-class II MHC complex formation, cis versus trans; type: binding
[4] = pH 5, overnight 37° C., without DM

[Cl][Ni][Cl] [NiCl2]
ability to disrupt DR1-CLIP association, focused screen of metal complexes (FIG. 1a) [1]: inactive | activity in titration of DR1-CLIP complex (FIG. 1b) (DR1-CLIP complex; pH 5): inactive

O=C([O-])CC([S-])C(=O)[O-].[Au+].[Na+].[Na+] (stereo not drawn) [sodium Au(I)-thiomalate, sodium aurothiomalate]
activity in titration of DR1-CLIP complex (FIG. 1b) (DR1-CLIP complex; pH 5): did not release peptide from DR1 | activity in titration of DR1-CLIP complex (FIG. 1b) (DR1-CLIP complex; pH 5, listed as sodium aurothiomalate): inactive | peptide release from DR1-HA after treatment of compound with hypochlorite (DR1-HA): causes peptide release from DR1 | peptide release from DR1-HA after treatment of compound with hypochlorite (DR1-HA; listed as 8): caused peptide release

N.N.O=C([O-])C1(C(=O)[O-])CCC1.[Pt+2] [carboplatin, diammine[1,1-cyclobutane-dicarboxylato(2-)-O,O′]—Pt^II]
activity in high-throughput screen (peptide release by fluorescence polarization) [1]: active

[Cl][Pd-2]([Cl])([Cl])[Cl].[K+].[K+] [Compound K2PdCl4, K2PdCl4]
ability to disrupt DR1-CLIP association, focused screen of metal complexes (FIG. 1a) [1]: active | IC50 (DR1-CLIP complex; [4]): 3480 ± 370 nM

N.N.[Cl][Pt][Cl] [cisplatin, cis-diamminedichloroplatinum (II)]
activity in high-throughput screen (peptide release by fluorescence polarization) [1]: active | IC50 (DR1-CLIP complex; [4]): 2660 ± 690 nM | IC50 (DR1-CLIP complex; pH 7.4): 770 ± 30 nM | IC50 (DR1-HA(306-318) complex; pH 5): ~4000 nM and 5490 nM | IC50 (DR1-HA(306-318) complex; pH 7.4): ~1000 nM and 1060 nM | inhibition of T-cell activation by metal-pretreated antigen-presenting cells [2]: blocked | inhibition of T-cell activation by metal-pretreated antigen-presenting cells ([2]; listed as Cisplatin): more potent | activity as inhibitor of peptide-class II MHC complex formation [3]: active

N.N.[Cl][Pt+2][Cl] [transplatin]
activity as inhibitor of peptide-class II MHC complex formation [3]: is not

[Au+].[C-]#N.[C-]#N.[K+] [K[Au^I(CN)2]]
ability to disrupt DR1-CLIP association, focused screen of metal complexes (FIG. 1a) [1]: did not release peptide from DR1

O=C(O)CC(S)C(=O)O (racemic) [thiomalate, D,L-mercaptosuccinic acid]
peptide release from DR1-HA after treatment of compound with hypochlorite (DR1-HA): does not have an effect | peptide release from DR1-HA after treatment of compound with hypochlorite (DR1-HA; listed as 9): did not

Source: patent publication US20080044405A1, “Noble metal complex-mediated immunosuppression” (President and Fellows of Harvard College, priority 2006, published 2008)
